{"source": "patent US20250204520A1", "about": "“USE OF SODIUM SELENITE IN PREVENTION AND/OR A[…] TEA TREE SUNBURN” (ANHUI AGRICULTURAL UNIVERSITY, priority 2023, published 2025)", "assay_type_in_all_cases": "in vivo, 'Huangjinye' tea tree variety", "key": {"tea tree sunburn [1]": {"system": "tea tree sunburn", "assay": "Anti-sunburn test of different concentrations of selenium: disease index, incidence and control effect after simulated sunburn", "settings": "for Incidence: foliar spray 4 days, simulated sunburn 4 h; for Disease index: foliar spray once a day for 4 days, simulated sunburn 34° C., 1600 μmol·m^−2·s^−1, 4 h; for Efficacy (control effect): calculated from disease index vs control group", "protocol": "A method for preventing and/or alleviating tea tree sunburn included: • Experimental base: artificial climate chamber of Anhui Agricultural University; • Experimental subjects: ‘Huangjinye’ tea tree variety; • Experimental procedure:\n2. Preparation of Na2SeO3 treatment solutions with different concentrations: 1.0, 2.0, 3.0, and 4.0 mg sodium selenite crystal powders were dissolved in 1 L of pure water (with final concentrations of 1.0, 2.0, 3.0, and 4.0 mg/L, respectively).\n3. Seedling cultivation: the purchased tea seedlings were planted in a flower pot with a diameter of 20 cm, where nutrient soil, vermiculite, and perlite were at a volume ratio of 2:1:1; growth environment: temperature 28° C., humidity 80%, and light intensity 500 μmol·m^−2·s^−1.\n(§1) 4. Anti-sunburn test of different concentrations of selenium: tea seedlings with roughly the same growth rate were sprayed with 0, 1.0, 2.0, 3.0, and 4.0 mg/L sodium selenite solution on the surface of their leaves at a distance of 3 cm to 5 cm from the leaves until liquid droplets were falling from the leaves, spray once a day for continuous 4 days; while a control group was sprayed with the same amount of water.\n(§2) After an interval of 2 d after the end of the external treatment, the tea seedlings were placed in an artificial climate chamber (temperature: 34° C., humidity: 60%, light intensity: 1600 μmol·m^−2·s^−1) to allow simulated sunburn treatment for 4 h, and then observed, photographed, and statistics were made.\nThe number of leaves at each disease level was counted according to the degree of disease susceptibility, and the average incidence rate and disease index were calculated according to the formula to determine the severity of tea leaf diseases. Incidence rate=number of diseased leaves/total number of investigated leaves×100%, disease index=[Σ(number of leaves at each disease level×representative value of disease level)/(total number of investigated leaves×representative value of highest level)]×100; control effect (%)=[(control group condition index-treatment group condition index)/control group condition index]×100%."}, "tea tree sunburn [2]": {"system": "tea tree sunburn", "assay": "Fv/Fm value of tea trees treated with exogenous selenium under sunburn", "settings": "under sunburn conditions (water treatment group: 42.09%)", "protocol": "as §1, §2\nInfluences of different concentrations of selenium on the apparent morphology of tea trees under sunburn: compared with the selenium treatment group, the water treatment group had the largest number of burned leaves and the largest lesion area. […] The decrease in Fv/Fm value of tea trees in the 4 selenium treatment groups was smaller than that in the water treatment group, where the Fv/Fm value of the treatment with a selenium concentration of 3.0 mg/L had the minimum decrease. Moreover, external spraying of sodium selenite could indeed alleviate the tea tree sunburn, and 3.0 mg/L Na2SeO3 solution had the best effect."}, "tea tree": {"system": "tea tree", "assay": "Malondialdehyde (MDA) content of tea tree leaves after spraying sodium selenite, with and without simulated sunburn", "settings": "3 mg/L Na2SeO3 sprayed", "protocol": "A method for preventing and/or alleviating tea tree sunburn included: • Experimental base: artificial climate chamber of Anhui Agricultural University; • Experimental subjects: ‘Huangjinye’ tea tree variety;\n2. Preparation of Na2SeO3 treatment solution: 3.0 mg sodium selenite crystal powder was dissolved in 1 L of pure water (concentration: 3.0 mg/L).\n3. Seedling growth environment: the purchased tea seedlings were planted in a flower pot with a diameter of 20 cm (nutrient soil, vermiculite, and perlite) were at a volume ratio of 2:1:1, and then placed in a glass greenhouse.\nNormal growth environment: temperature 28° C., humidity 80%, and light intensity500 μmol·m^−2·s^−1.\nSunburn-simulated environment: temperature 34° C., humidity 60%, and light intensity 1,600 μmol·m^−2·s^−1.\n4. […]\nAfter sunburn treatment for 4 h, 0.5 g samples of the 3rd and 4th leaves of mature tea tree leaves were added in a mortar separately, added with 5 mL of 5% (v/v) trichloroacetic acid and ground. […] After rapid cooling and centrifugation at 4,000 r/min for 10 min, a supernatant was detected using a UV spectrophotometer at […], 600 nm, and 450 nm separately, and the data were recorded and analyzed. […]"}, "[3]": {"settings": "selenium concentration 1.0 mg/L"}, "[4]": {"settings": "selenium concentration 2.0 mg/L"}, "[5]": {"settings": "selenium concentration 3.0 mg/L"}, "[6]": {"settings": "selenium concentration 4.0 mg/L"}}, "data": [{"molecule": "O=[Se]([O-])[O-].[Na+].[Na+]", "note": "[selenium, sodium selenite]", "values": [{"measurement": "Number of sunburned leaves and area of diseased spots (apparent morphology)", "setting": "tea tree sunburn [1]; concentration of 3.0 mg/L, among the four spraying concentrations, under sunburn", "value": "least amount and the smallest lesion area"}, {"measurement": "Reduction of incidence of sunburn compared with the group without selenium treatment", "setting": "tea tree sunburn [1]; [3]", "value": 33.83, "unit": "%"}, {"measurement": "Incidence", "setting": "tea tree sunburn [1]; [3]", "value": "12.11 ± 3.38", "unit": "b %"}, {"measurement": "Disease index", "setting": "tea tree sunburn [1]; [3]", "value": "1.13 ± 0.26", "unit": "bc"}, {"measurement": "Efficacy (control effect)", "setting": "tea tree sunburn [1]; [3]", "value": 42.61, "unit": "%"}, {"measurement": "Reduction of incidence of sunburn compared with the group without selenium treatment", "setting": "tea tree sunburn [1]; [4]", "value": 29.62, "unit": "%"}, {"measurement": "Incidence", "setting": "tea tree sunburn [1]; [4]", "value": "12.88 ± 0.66", "unit": "ab %"}, {"measurement": "Disease index", "setting": "tea tree sunburn [1]; [4]", "value": "1.13 ± 0.35", "unit": "bc"}, {"measurement": "Efficacy (control effect)", "setting": "tea tree sunburn [1]; [4]", "value": 42.61, "unit": "%"}, {"measurement": "Reduction of incidence of sunburn compared with the group without selenium treatment", "setting": "tea tree sunburn [1]; [5]", "value": 78.14, "unit": "%"}, {"measurement": "Incidence", "setting": "tea tree sunburn [1]; [5]", "value": "4.00 ± 0.00", "unit": "d %"}, {"measurement": "Disease index", "setting": "tea tree sunburn [1]; [5]", "value": "0.22 ± 0.08", "unit": "days"}, {"measurement": "Efficacy (control effect)", "setting": "tea tree sunburn [1]; [5]", "value": 89.38, "unit": "%"}, {"measurement": "Reduction of incidence of sunburn compared with the group without selenium treatment", "setting": "tea tree sunburn [1]; [6]", "value": 9.84, "unit": "%"}, {"measurement": "Incidence", "setting": "tea tree sunburn [1]; [6]", "value": "16.50 ± 3.80", "unit": "a %"}, {"measurement": "Disease index", "setting": "tea tree sunburn [1]; [6]", "value": "1.62 ± 0.23", "unit": "ab"}, {"measurement": "Efficacy (control effect)", "setting": "tea tree sunburn [1]; [6]", "value": 17.58, "unit": "%"}, {"measurement": "Decrease of Fv/Fm value compared with the control CK", "setting": "tea tree sunburn [2]; [3]", "value": 30.29, "unit": "%"}, {"measurement": "Decrease of Fv/Fm value compared with the control CK", "setting": "tea tree sunburn [2]; [4]", "value": 23.72, "unit": "%"}, {"measurement": "Decrease of Fv/Fm value compared with the control CK", "setting": "tea tree sunburn [2]; [5]", "value": 17.86, "unit": "%"}, {"measurement": "Decrease of Fv/Fm value compared with the control CK", "setting": "tea tree sunburn [2]; [6]", "value": 34.32, "unit": "%"}, {"measurement": "Reduction of MDA content compared with the control", "setting": "tea tree; non-sunburn growth conditions (Se vs CK)", "value": 22.14, "unit": "%"}, {"measurement": "Decrease of MDA content compared with the water treatment group under sunburn", "setting": "tea tree; simulated sunburn 4 h (SeH vs CKH)", "value": 19.89, "unit": "%"}]}]}
